target: T1, Bromodomain-containing protein 9 (Homo sapiens, UniProt Q9H8M2); assay: IC50 measurements for inhibitors using BRD9 AlphaLisa Binding Assay: His/Flag epitope tagged BRD9134-239 was cloned, expressed, and purified to homogeneity. […] After 20 minutes incubation at room temperature AlphaLisa Streptavidin Acceptor Beads (Perkin-AL125C) and AlphaLisa Nickel donor beads (Perkin AS 10 ID) were added to a final concentration of 15 ug/mL each.
T1 sequence (Q9H8M2 whole entry): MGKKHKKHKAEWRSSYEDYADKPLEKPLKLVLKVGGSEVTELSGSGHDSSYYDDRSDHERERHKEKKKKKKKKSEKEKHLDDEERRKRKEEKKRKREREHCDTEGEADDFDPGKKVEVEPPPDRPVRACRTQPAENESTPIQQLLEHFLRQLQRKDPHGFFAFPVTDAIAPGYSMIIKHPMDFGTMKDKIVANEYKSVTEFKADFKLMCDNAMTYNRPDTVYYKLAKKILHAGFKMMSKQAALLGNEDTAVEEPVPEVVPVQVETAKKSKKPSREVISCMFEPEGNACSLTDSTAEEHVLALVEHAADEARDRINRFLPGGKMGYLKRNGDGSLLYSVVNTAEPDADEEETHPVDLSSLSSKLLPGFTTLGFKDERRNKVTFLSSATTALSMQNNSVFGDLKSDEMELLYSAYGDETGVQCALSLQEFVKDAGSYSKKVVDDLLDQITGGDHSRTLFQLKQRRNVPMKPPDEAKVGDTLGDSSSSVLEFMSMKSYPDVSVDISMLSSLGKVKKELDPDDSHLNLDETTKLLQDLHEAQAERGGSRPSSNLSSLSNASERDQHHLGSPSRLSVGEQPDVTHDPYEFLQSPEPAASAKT

**Q.** With `CCCCn1cc(-c2cc(C#N)ccc2OC)c2cc[nH]c2c1=O` as the compound, how does the IC50 read?
**A.** 46 nM

**Q.** Which IC50 does the source give for `CC(C)(O)c1ccc(-c2cn(CCC3CC3)c(=O)c3[nH]ccc23)cc1` here?
**A.** 280 nM

**Q.** With `C/C=C/Cn1cc(-c2cc(C(=O)NCC)ccc2OC)c2cc[nH]c2c1=O` as the compound, how does the IC50 read?
**A.** 28 nM

**Q.** How did the IC50 turn out when `C=CCn1cc(-c2cc(OC)c(C(=O)N3CCOCC3)cc2OC)c2cc(C)[nH]c2c1=O` was run?
**A.** 9 nM

— ChEMBL document CHEMBL5726174, “Therapeutic compounds and uses thereof” (2019)
